{"source": "paper PMC6562610", "about": "“Inhibition of Hedgehog Signaling in Fibroblasts, Pancreatic, and Lung Tumor Cells by Oxy186, an Oxysterol Analogue with Drug-Like Properties” (Cells, 2019)", "key": {"[1]": {"test_system": "Smo mediated activation of Hh signaling in NIH3T3 cells", "experiment": "Inhibition of Hh signaling from allosteric activation of Smo by Oxy133, Q-RT-PCR", "assay_type": "cell-based, mouse", "conditions": "72 h", "method": "Total RNA was extracted with the RNeasy Plus Mini Kit from Qiagen, according to the manufacturer’s instructions. One microgram of RNA was reverse-transcribed using an iScript Reverse Transcription Supermix from Bio-Rad, to make single-stranded cDNA. The cDNAs were then mixed with Qi SYBR Green Supermix (Bio-Rad, Hercules, CA, USA) for quantitative RT-PCR assay using a Bio-Rad I-cycler IQ quantitative thermocycler. All PCR samples were prepared in triplicate wells in a 96-well plate. After 40 cycles of PCR, melt curves were examined in order to ensure primer specificity. Fold changes in gene expression were calculated using the ΔΔCt method. Primers used for mouse were as follows: Oaz1 (5’-CCACTGCTTCGCCAGAGAG-3’) and (5’-CCCGGACCCAGGTTACTA-3’), Gli1 (5’-[…]-3’ and 5’-[…]-3’), Ptch1 (5’-CCATCGGCGACAAGAACC-3’ and 5’-[…]-3’), Hip (5’-[…]-3’ and 5’-[…]-3’), and Abca1 (5’-[…]-3’ and 5’-[…]-3’). […]\nFigure 3 Inhibition of ligand-induced Hedgehog signaling. […] After 72 h, RNA was extracted and analyzed by Q-RT-PCR for the expression of Hh target genes Gli1 (a,b,d) and Ptch1 (c), and normalized to Oaz1 expression. […] Luciferase activity was measured and normalized to the Renilla luciferase activity. […]"}, "[2]": {"test_system": "endogenous Gli activity in Sufu-/- cells", "experiment": "Gli responsive luciferase reporter in Sufu-/- cells", "assay_type": "cell-based, mouse", "conditions": "10 µM, 72 h", "method": "NIH3T3-E1 and Sufu^−/− cells cultured in 24-well plates at 90% confluence were transiently transfected with 0.1 µg of Gli response-element reporter (pGL3b-8xGli-Luciferase) plasmid, and 10 ng of pTK-Renilla-Luciferase plasmid with or without co-transfection with 10 ng of Gli1 overexpression vector, pSRα-Gli1, as previously described using Lipofectamine LTX Plus transfection reagent (Invitrogen). Twenty-four h after transfection, cells were treated with test agents for 72 h. Then the firefly and Renilla luciferase activities were measured using a dual luciferase kit (Promega, Madison, WI, USA) and a GloMax-96 Microplate Luminometer. The firefly luciferase activities were normalized to the Renilla luciferase activities. Data are reported as the mean of triplicate determinations ± SD.\nFigure 5 Oxy186 acts downstream of Smo. (a) Sufu^−/− mouse embryonic fibroblast (MEF) cells were treated with DMEM containing 10% FBS in the presence or absence of Oxy186 (10 µM). After 72 h, RNA was extracted and analyzed by Q-RT-PCR for the expression of Hh target genes Gli1, Ptch1, and Hip, normalized to Oaz1 expression. […] Luciferase activity was measured and normalized to the Renilla luciferase activity. […]"}, "[3]": {"experiment": "Metabolic stability in mouse liver microsomes", "assay_type": "in vitro ADME"}, "[4]": {"test_system": "Hh pathway target genes Gli1, Ptch1, and Hip in Sufu-/- mouse embryonic fibroblasts", "experiment": "Inhibition of Hh target gene expression in Sufu-/- MEFs, Q-RT-PCR", "assay_type": "cell-based", "conditions": "10 µM, 72 h", "from_the_text": "NIH3T3-E1 fibroblasts were obtained from ATCC (Manassas, VA) and cultured, as previously described. CAPAN-1 and PANC-1 human pancreatic cancer cells were obtained from ATCC and cultured in Dulbecco’s Modified Eagle Medium (DMEM) containing 10% heat-inactivated fetal bovine serum (FBS) (Hyclone Laboratories, Logan, UT, USA) and antibiotics, as previously described. The human lung cancer cell lines A549 and H2030 were obtained from ATCC and cultured in RPMI-1640 containing 10% FBS. The human hepatoma cell line HepG2 was obtained from ATCC and cultured in DMEM containing 10% FBS. Mouse embryonic fibroblasts (MEFs) from suppressor of fused (Sufu) null mice (Sufu^−/−) were provided by Dr. Philip Beachy of Stanford University and cultured in DMEM containing 10% FBS. […]\nTotal RNA was extracted with the RNeasy Plus Mini Kit from Qiagen, according to the manufacturer’s instructions. […] The cDNAs were then mixed with Qi SYBR Green Supermix (Bio-Rad, Hercules, CA, USA) for quantitative RT-PCR assay using a Bio-Rad I-cycler IQ quantitative thermocycler. […] Fold changes in gene expression were calculated using the ΔΔCt method. […]\nFigure 5 Oxy186 acts downstream of Smo. […] After 72 h, RNA was extracted and analyzed by Q-RT-PCR for the expression of Hh target genes Gli1, Ptch1, and Hip, normalized to Oaz1 expression. […] Luciferase activity was measured and normalized to the Renilla luciferase activity. […]"}, "PANC-1 cells": {"test_system": "PANC-1 cells", "experiment": "Cell counting assay, PANC-1", "assay_type": "cell-based, human", "conditions": "96 h", "method": "A549 and H2030 cells cultured in 12-well plates at 20% confluence were treated with Oxy186, HPI-1, Gant61, or GDC0449 for 96 hours and then trypsinized and suspended in fresh medium. An aliquot of cell suspension was applied to a hemocytometer and counted under a microscope.\nFigure 6 Inhibition of human pancreatic and lung cancer cell proliferation by Oxy186. (a,c) A549, (b) and (d) H2030, (e) PANC-1, and (f) CAPAN-1 cells were treated with the compounds as indicated in RPMI 1640 (a–d) or DMEM (e,f) containing 5% FBS for 96 h and then were trypsinized and counted. Data from a representative experiment are reported as the mean of triplicate determinations ± SD (* p < 0.05 vs. Control; ** p < 0.01 vs. control)."}}, "data": [{"smiles": "C[C@]12CC[C@H](O)C[C@@H]1CC[C@@H]1[C@@H]2CC[C@@]2(C)[C@H]1CC[C@@H]2[C@](C)(O)CCc1ccc(F)cc1", "note": "[Oxy186, (3S,5S,8R,9S,10S,13S,14S,17S)-17-((R)-4-(4-fluorophenyl)-2-hydroxybutan-2-yl)-10,13-dimethylhexadecahydro-1H-cyclopenta[a]phenanthren-3-ol]", "values": [{"measurement": "Suppression of Hh signaling from allosteric activation of Smo by Oxy133", "setting": "[1]", "value": "significantly suppressed"}, {"measurement": "Inhibition of Gli responsive luciferase reporter activity (endogenous Gli)", "setting": "[2]", "value": "significantly inhibited"}, {"measurement": "remaining at 1 h", "setting": "[3]; 60 min, read-out: MLM, % Remaining after 60 min", "value": 50, "unit": "%"}, {"measurement": "half-life", "setting": "[3]; read-out: MLM, Half-Life", "value": 1, "unit": "h"}, {"measurement": "Inhibition of high baseline expression of Hh pathway target genes Gli1, Ptch1, and Hip", "setting": "[4]", "value": "significant inhibition"}, {"measurement": "Anti-proliferation effect", "setting": "PANC-1 cells", "value": "significant anti-proliferation effects"}]}]}
